Usually IC50 stands for the concentration that gives 50% inhibition.

Each structure is given as a SMILES string. Like-named read-outs stand apart in the source and are kept apart here.

We go through 45 molecules from publication PMC9289666, “Highly Parallelized, Multicolor Optogenetic Recordings of Cellular Activity for Therapeutic Discovery Applications in Ion Channels and Disease-Associated Excitable Cells” (Frontiers in Molecular Neuroscience, 2022).

For data set [1], the target named is T1, human Nav.1.7 (Homo sapiens, UniProt Q15858).
T1 construct: expressed in transfected cells
Briefly: Nav1.7 spiking HEK assay on Swarm. In kind it is cell-based.

Data set [2] relates to Nav1.5. The note with it: cited from earlier work.
[3] abbreviates: normalized mean spike amplitude score, Prestwick library compounds.
Where [4] appears, read: read-out: Nav1.5 Ionworks (IC50), automated patch clamp, literature reported, ref Harmer et al., 2011.
Where [5] appears, read: compounds at 1 μM, cutoff 0.5 mean spike amplitude.

T1 sequence (Q15858 whole entry): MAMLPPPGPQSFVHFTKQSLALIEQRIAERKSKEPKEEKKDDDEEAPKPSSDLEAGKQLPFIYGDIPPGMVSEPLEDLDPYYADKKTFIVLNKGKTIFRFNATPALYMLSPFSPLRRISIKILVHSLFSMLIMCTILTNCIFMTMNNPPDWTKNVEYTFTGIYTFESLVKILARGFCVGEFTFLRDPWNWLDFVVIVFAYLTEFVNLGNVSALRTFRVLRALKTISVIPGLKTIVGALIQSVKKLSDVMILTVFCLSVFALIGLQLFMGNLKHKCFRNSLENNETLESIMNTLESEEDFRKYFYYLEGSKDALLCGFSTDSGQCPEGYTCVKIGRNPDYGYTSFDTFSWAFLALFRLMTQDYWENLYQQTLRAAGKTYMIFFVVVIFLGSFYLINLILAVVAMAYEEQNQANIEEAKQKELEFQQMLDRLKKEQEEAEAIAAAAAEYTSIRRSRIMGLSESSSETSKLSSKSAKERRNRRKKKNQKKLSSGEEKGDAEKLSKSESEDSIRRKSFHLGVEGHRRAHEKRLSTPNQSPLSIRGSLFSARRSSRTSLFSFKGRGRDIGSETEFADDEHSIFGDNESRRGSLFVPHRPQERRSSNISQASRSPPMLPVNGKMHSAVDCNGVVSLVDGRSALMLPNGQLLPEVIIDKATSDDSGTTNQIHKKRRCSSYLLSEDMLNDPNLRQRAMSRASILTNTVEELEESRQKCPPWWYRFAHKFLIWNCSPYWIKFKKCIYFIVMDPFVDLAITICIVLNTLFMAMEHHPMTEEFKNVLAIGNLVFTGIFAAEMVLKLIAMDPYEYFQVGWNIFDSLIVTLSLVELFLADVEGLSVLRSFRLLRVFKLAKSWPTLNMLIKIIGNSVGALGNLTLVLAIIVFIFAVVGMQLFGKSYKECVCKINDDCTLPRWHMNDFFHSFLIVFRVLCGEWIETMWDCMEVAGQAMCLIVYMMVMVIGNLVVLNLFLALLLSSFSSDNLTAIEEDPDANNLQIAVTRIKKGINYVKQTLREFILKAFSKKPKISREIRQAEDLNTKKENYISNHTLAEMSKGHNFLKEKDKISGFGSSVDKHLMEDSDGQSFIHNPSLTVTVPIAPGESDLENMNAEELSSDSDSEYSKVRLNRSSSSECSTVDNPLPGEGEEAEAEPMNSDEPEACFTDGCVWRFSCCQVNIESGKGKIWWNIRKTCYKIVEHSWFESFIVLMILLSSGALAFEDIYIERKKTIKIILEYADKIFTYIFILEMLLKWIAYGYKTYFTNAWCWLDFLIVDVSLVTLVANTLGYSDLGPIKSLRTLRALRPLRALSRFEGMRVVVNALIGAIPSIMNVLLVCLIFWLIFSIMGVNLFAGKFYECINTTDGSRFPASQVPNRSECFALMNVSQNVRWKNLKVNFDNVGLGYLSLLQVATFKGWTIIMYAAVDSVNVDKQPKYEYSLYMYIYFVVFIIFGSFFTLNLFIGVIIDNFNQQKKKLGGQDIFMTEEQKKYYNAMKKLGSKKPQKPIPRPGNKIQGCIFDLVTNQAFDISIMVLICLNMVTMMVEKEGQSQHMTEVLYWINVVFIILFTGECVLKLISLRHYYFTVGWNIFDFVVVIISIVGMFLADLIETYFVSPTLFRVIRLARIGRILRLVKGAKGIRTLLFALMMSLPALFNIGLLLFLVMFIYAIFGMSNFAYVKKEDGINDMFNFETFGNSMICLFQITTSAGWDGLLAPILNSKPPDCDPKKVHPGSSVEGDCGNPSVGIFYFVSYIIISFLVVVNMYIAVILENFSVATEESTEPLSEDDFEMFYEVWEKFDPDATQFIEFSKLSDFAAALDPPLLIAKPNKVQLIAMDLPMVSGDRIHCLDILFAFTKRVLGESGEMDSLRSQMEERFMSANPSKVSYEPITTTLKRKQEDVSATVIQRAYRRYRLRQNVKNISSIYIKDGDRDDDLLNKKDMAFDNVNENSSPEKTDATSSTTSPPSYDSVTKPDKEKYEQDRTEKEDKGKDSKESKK

Take `CC(C)NC[C@@H](O)COc1cccc2ccccc12` [(R)-Propranolol]: the “Nav1.7 Swarm (score at 3 µM)” value in data set [1] (setting [3]) amounted to 0.63. The IC50 in data set [2] is 7.5 µM.

For the molecule `Nc1c(Br)cc(Br)cc1CN[C@H]1CC[C@H](O)CC1` [Ambroxol], in data set [1] (setting [3]), the “Nav1.7 Swarm (score at 3 µM)” value came out at 0.80. Moreover, the IC50 in data set [2] (setting [4]) was 15.2 µM.

For `CCCCc1oc2ccccc2c1C(=O)c1cc(I)c(OCCN(CC)CC)c(I)c1` [Amiodarone], in data set [1], the “Nav1.7 Swarm (score at 3 µM)” value was 0.52.

For `CCN(CC)Cc1cc(Nc2ccnc3cc(Cl)ccc23)ccc1O` [Amodiaquin], in data set [1] (setting [3]), the “Nav1.7 Swarm (score at 3 µM)” value came to 0.95. Moreover, the IC50 in data set [2] (setting [4]) was 9.7 µM.

With `Clc1ccc2c(c1)C(N1CCNCC1)=Nc1ccccc1O2` [Amoxapine], in data set [2] (setting [4]), the IC50 is 5.8 µM.

`COc1ccc(CCN2CCC(Nc3nc4ccccc4n3Cc3ccc(F)cc3)CC2)cc1` [Astemizole]: in data set [1] (setting [3]), the “Nav1.7 Swarm (score at 3 µM)” value came to 0.01. For the same molecule, the IC50 in data set [2] (setting [4]) is 2.3 µM.

For the molecule `CC(C)COCC(CN(Cc1ccccc1)c1ccccc1)N1CCCC1` (stereo not shown) [Bepridil], the IC50 in data set [2] is 1.9 µM.

Turning to `CCN(CC)CCNC(=O)c1cc(Br)c(N)cc1OC` [Bromopride], in data set [1] (setting [3]), the “Nav1.7 Swarm (score at 3 µM)” value is 0.92. The IC50 in data set [2] (setting [4]) is 41.4 µM.

`CCCCN1CCCCC1C(=O)Nc1c(C)cccc1C` (stereo not shown) [Bupivacaine]: in data set [1] (setting [3]), the “Nav1.7 Swarm (score at 3 µM)” value was found to be 0.27. Moreover, the IC50 in data set [2] (setting [4]) was 4.3 µM.

Turning to `CC(NC(C)(C)C)C(=O)c1cccc(Cl)c1` (stereo not shown) [Bupropion], the “Nav1.7 Swarm (score at 3 µM)” value in data set [1] (setting [3]) worked out at 0.97. Also, the IC50 in data set [2] (setting [4]) was 76.2 µM.

Turning to `O=C1CC2(CCCC2)CC(=O)N1CCCCN1CCN(c2ncccn2)CC1` [Buspirone], in data set [1] (setting [3]), the “Nav1.7 Swarm (score at 3 µM)” value amounted to 0.97. The IC50 in data set [2] (setting [4]) is 125 µM.

Take `O=C(N[C@H](CO)[C@H](O)c1ccc([N+](=O)[O-])cc1)C(Cl)Cl` [Chloramphenicol]: in data set [1] (setting [3]), the “Nav1.7 Swarm (score at 3 µM)” value is recorded as 1.07. Also, the IC50 in data set [2] (setting [4]) is 215 µM.

On to `CCN(CC)CCCC(C)Nc1ccnc2cc(Cl)ccc12` (stereo not shown) [Chloroquine], for which the “Nav1.7 Swarm (score at 3 µM)” value in data set [1] was 0.98. Further, in data set [2], the IC50 is 36.5 µM.

For `CN(C)CCCN1c2ccccc2Sc2ccc(Cl)cc21` [Chlorpromazine], in data set [1] (setting [3]), the “Nav1.7 Swarm (score at 3 µM)” value is listed as 0.32. In addition, in data set [2] (setting [4]), the IC50 is 2.8 µM.

`CN(C)CCCC1(c2ccc(F)cc2)OCc2cc(C#N)ccc21` (stereo not shown) [Citalopram]: the “Nav1.7 Swarm (score at 3 µM)” value in data set [1] (setting [3]) turned out to be 0.92. Further, the IC50 in data set [2] (setting [4]) was 14.7 µM.

As to `CN(C)CCCN1c2ccccc2CCc2ccc(Cl)cc21` [Clomipramine], in data set [1], the “Hit identification in Prestwick Chemical Library pilot screen” value (shortened to “Hit identification”) is on record as “hits” and the “Nav1.7 Swarm (score at 3 µM)” value is 0.20. Besides, the IC50 in data set [2] (setting [4]) is 2.6 µM.

`CN1CCN(C2=Nc3cc(Cl)ccc3Nc3ccccc32)CC1` [Clozapine]: the “Nav1.7 Swarm (score at 3 µM)” value in data set [1] (setting [3]) is listed as 0.74. The IC50 in data set [2] (setting [4]) was 11.6 µM.

In the case of `CN1CCC(=C2c3ccccc3C=Cc3ccccc32)CC1` [Cyproheptadine], the “Nav1.7 Swarm (score at 3 µM)” value in data set [1] (setting [3]) came to 0.44. In data set [2] (setting [4]), the IC50 is 6.1 µM.

Regarding `CNCCCN1c2ccccc2CCc2ccccc21` [Desipramine], in data set [1] (setting [5]), the “Hit identification” value was “hits”. Moreover, the “Nav1.7 Swarm (score at 3 µM)” value in data set [1] (setting [3]) came out at 0.38. In data set [2] (setting [4]), the IC50 was 2.4 µM.

In the case of `COc1ccc([C@@H]2Sc3ccccc3N(CCN(C)C)C(=O)[C@@H]2OC(C)=O)cc1` [Diltiazem], the “Nav1.7 Swarm (score at 3 µM)” value in data set [1] (setting [3]) came out at 0.82. Also, the IC50 in data set [2] (setting [4]) is 14.2 µM.

With `OCCN(CCO)c1nc(N2CCCCC2)c2nc(N(CCO)CCO)nc(N3CCCCC3)c2n1` [Dipyridamole], the “Nav1.7 Swarm (score at 3 µM)” value in data set [1] (setting [3]) was found to be 0.92. For the same molecule, the IC50 in data set [2] (setting [4]) was 19.3 µM.

As to `CC(C)N(CCC(C(N)=O)(c1ccccc1)c1ccccn1)C(C)C` (stereo not shown) [Disopyramide], the “Nav1.7 Swarm (score at 3 µM)” value in data set [1] (setting [3]) stood at 0.94. Also, in data set [2] (setting [4]), the IC50 was 302 µM.

As for `O=c1[nH]c2ccccc2n1CCCN1CCC(n2c(=O)[nH]c3cc(Cl)ccc32)CC1` [Domperidone], the “Nav1.7 Swarm (score at 3 µM)” value in data set [1] (setting [3]) was found to be 0.53. Also, the IC50 in data set [2] (setting [4]) was 5.6 µM.

`C=C1C[C@@H]2[C@H](CC[C@]3(C)C(=O)CC[C@@H]23)[C@@]2(C)C=CC(=O)C=C12` [Exemestane]: the “Nav1.7 Swarm (score at 3 µM)” value in data set [1] (setting [3]) is 0.90. In addition, the IC50 in data set [2] (setting [4]) was 71.3 µM.

Take `O=C(NCC1CCCCN1)c1cc(OCC(F)(F)F)ccc1OCC(F)(F)F` (stereo not shown) [Flecainide]: in data set [1] (setting [3]), the “Nav1.7 Swarm (score at 3 µM)” value is given as 0.72. In data set [2] (setting [4]), the IC50 is 5.8 µM.

`Fc1ccc(C(c2ccc(F)cc2)N2CCN(C/C=C/c3ccccc3)CC2)cc1` [Flunarizine]: the “Nav1.7 Swarm (score at 3 µM)” value in data set [1] (setting [3]) stood at 0.16. In data set [2] (setting [4]), the IC50 was 2.6 µM.

In the case of `CNCCC(Oc1ccc(C(F)(F)F)cc1)c1ccccc1` (stereo not shown) [Fluoxetine], the “Nav1.7 Swarm (score at 3 µM)” value in data set [1] was determined as 0.64. Besides, the IC50 in data set [2] (setting [4]) is 4.9 µM.

Regarding `OCCN1CCN(CCCN2c3ccccc3Sc3ccc(C(F)(F)F)cc32)CC1` [Fluphenazine], the “Nav1.7 Swarm (score at 3 µM)” value in data set [1] (setting [3]) is reported as 0.31. Further, the IC50 in data set [2] (setting [4]) is 8 µM.

As to `O=C(CCCN1CCC(O)(c2ccc(Cl)cc2)CC1)c1ccc(F)cc1` [Haloperidol], the “Nav1.7 Swarm (score at 3 µM)” value in data set [1] (setting [3]) is -0.09. Further, the IC50 in data set [2] (setting [4]) was 2.3 µM.

For `OCCOCCN1CCN(C(c2ccccc2)c2ccc(Cl)cc2)CC1` (stereo not shown) [Hydroxyzine], the “Nav1.7 Swarm (score at 3 µM)” value in data set [1] (setting [3]) amounted to 0.56. The IC50 in data set [2] (setting [4]) is 32.8 µM.

`CN(C)CCCN1c2ccccc2CCc2ccccc21` [Imipramine]: the “Hit identification” value in data set [1] (setting [5]) is “hits”. In data set [1] (setting [3]), the “Nav1.7 Swarm (score at 3 µM)” value was determined as 0.35.

Take `CCN(CC)CC(=O)Nc1c(C)cccc1C` [Lidocaine]: in data set [1], the “Nav1.7 Swarm (score at 3 µM)” value was 0.91. The molecule further displayed an IC50 in data set [1] (8 mM bath [K+], mean spike amplitude across all test pulses) of 15 µM.

Turning to `CCOC(=O)N1CCC(=C2c3ccc(Cl)cc3CCc3cccnc32)CC1` [Loratadine], the “Nav1.7 Swarm (score at 3 µM)” value in data set [1] (setting [3]) is given as 0.62.

With `COc1c(N2C[C@@H]3CCCN[C@@H]3C2)c(F)cc2c(=O)c(C(=O)O)cn(C3CC3)c12` [Moxifloxacin], the “Nav1.7 Swarm (score at 3 µM)” value in data set [1] (setting [3]) stood at 1.06.

Consider `COC(=O)C1=C(C)NC(C)=C(C(=O)OC)C1c1ccccc1[N+](=O)[O-]` [Nifedipine], for which the “Nav1.7 Swarm (score at 3 µM)” value in data set [1] (setting [3]) is 0.97.

In the case of `Cc1cc2c(s1)Nc1ccccc1N=C2N1CCN(C)CC1` [Olanzapine], in data set [1], the “Nav1.7 Swarm (score at 3 µM)” value was determined as 1.09.

As to `CCN(CC)CCNC(=O)c1ccc(N)cc1` [Procainamide], the “Nav1.7 Swarm (score at 3 µM)” value in data set [1] (setting [3]) is on record as 1.00.

As for `CCCNCC(O)COc1ccccc1C(=O)CCc1ccccc1` (stereo not shown) [Propafenone], the “Nav1.7 Swarm (score at 3 µM)” value in data set [1] (setting [3]) was found to be 0.20.

Turning to `C=C[C@H]1C[N@@]2CC[C@H]1C[C@@H]2[C@@H](O)c1ccnc2ccc(OC)cc12` [Quinidine], the IC50 in data set [2] (setting [4]) was 9.7 µM.

Consider `Nc1nc2ccc(OC(F)(F)F)cc2s1` [Riluzole], for which the “Nav1.7 Swarm (score at 3 µM)” value in data set [1] (setting [3]) is listed as 0.14.

On to `Cc1nc2n(c(=O)c1CCN1CCC(c3noc4cc(F)ccc34)CC1)CCCC2` [Risperidone], for which the “Nav1.7 Swarm (score at 3 µM)” value in data set [1] is recorded as 0.89.

For `CN[C@H]1CC[C@@H](c2ccc(Cl)c(Cl)c2)c2ccccc21` [Sertraline], the “Nav1.7 Swarm (score at 3 µM)” value in data set [1] is listed as 0.87.

For the molecule `CC(C)(C)c1ccc(C(O)CCCN2CCC(C(O)(c3ccccc3)c3ccccc3)CC2)cc1` (stereo not shown) [Terfenadine], the “Nav1.7 Swarm (score at 3 µM)” value in data set [1] (setting [3]) amounted to 0.39.

With `CN(C)CCC=C1c2ccccc2COc2ccccc21` [doxepin], the “Hit identification” value in data set [1] (setting [5]) is listed as “hits”.

Consider `CCc1nn(CCCN2CCN(c3cccc(Cl)c3)CC2)c(=O)n1CCOc1ccccc1` [nefazodone], for which the “Hit identification” value in data set [1] (setting [5]) is “hits”.
